Measurements reported in ChEMBL document CHEMBL3045746, “Efficacy of Lawsonia inermis leaves extract and its phenolic compounds against olive knot and crown gall diseases” (2013).
In brackets after ≈: the same amount, converted by molar mass.

Test system: Agrobacterium tumefaciens
Assay: Antibacterial activity against Agrobacterium tumefaciens str. B6 assessed as growth inhibition after 48 hr by INT staining
Type: functional
Conditions: str. B6, 48 h

- MIC: 30 µg/mL (≈ 86.6 µM)
Compound: CC(=O)c1c(O)cc(O)c(O)c1O[C@@H]1O[C@H](CO)[C@@H](O)[C@H](O)[C@H]1O [LALIOSIDE]
